Measured values: patent publication US9992994B2, “Agricultural and detergent compositions containing a tertiary amide as adjuvant or as surfactant” (Taminco BVBA, priority 2011, dated 2018)
Where two headings read alike, the source gives them in different places.

Key:
[1] = 20° C., cited from earlier work
[2] = compatibility of diquats with anionic surfactant in water; assay type: physicochemical; set-up: key: Cl. = Clear; Blu. = Bluish; Visc. = Viscous; Prec. = Precipitate; Turb. = Turbid; details: 1 wt % total surfactant in water, ambient temperature; for Compatibility observation, 100% of Diquat: 100% diquat; for Compatibility observation, 10% of Diquat / Compatibility observation, 20% of Diquat / Compatibility observation, 30% of Diquat / Compatibility observation, 40% of Diquat / Compatibility observation, 50% of Diquat / Compatibility observation, 60% of Diquat / Compatibility observation, 70% of Diquat / Compatibility observation, 80% of Diquat / Compatibility observation, 90% of Diquat: mixture with Sodium Laureth Sulfate; for Compatibility observation, 10% of Diquat: 10% diquat; for Compatibility observation, 20% of Diquat: 20% diquat; for Compatibility observation, 30% of Diquat: 30% diquat; for Compatibility observation, 40% of Diquat: 40% diquat; for Compatibility observation, 50% of Diquat: 50% diquat; for Compatibility observation, 60% of Diquat: 60% diquat; for Compatibility observation, 70% of Diquat: 70% diquat; for Compatibility observation, 80% of Diquat: 80% diquat; for Compatibility observation, 90% of Diquat: 90% diquat
Protocol: To delimit the applicability of the Diquats the compatibility in different ratios with LES was tested in the temperature range between 0° C. and 90° C. […] With a hydrocarbon tail of up to 10 carbon atoms no precipitation was observed and with increasing chain length only a very narrow region of mixing ratios led to an insoluble deposit.

[3] = solubility temperatures of 1 wt % solutions; assay type: physicochemical
[4] = test system: common lambsquarter (Chenopodium album L.; CHEAL); experiment: adjuvant for Carfentrazon-ethyl test; assay type: in vivo; details: Spotlight Plus, 7 DAT
Protocol: In this test we looked at the performance with Carfentrazone-ethyl (Spotlight Plus from FMC) on common lambsquarter (Chenopodium album L.; CHEAL).
After emergence, the seedlings were thinned to two plants per pot for the efficacy experiments. The common lambsquarters were treated at the four-leaf stage. The fresh weights of the plants were measured 7 days after treatment (7 DAT).
The following herbicide was used in the treatment solutions: Carfentrazone-ethyl, Spotlight Plus (FMC) ME formulation, 60 g a.i./L.
Demineralized water was used as the carrier.

winter wheat (cv. Ilias) = experiment: adjuvant for glyphosate test on wheat; assay type: in vivo; details: where named, 0.25% w/v, 21 DAT; for Fresh Weight WHEAT: IPA-glyphosate 2.3 mM (77.8 g ae/ha at 200 L/ha); for Relative weight WHEAT (%): untreated plant = 100%, IPA-glyphosate 2.3 mM
Protocol: (§1) Wheat plants were used as a model for difficult to wet grasses and black nightshade was used as a model for a plant with an easy to wet but difficult to permeate leaf surface.
(§2) After emergence, the wheat seedlings were thinned to six plants per pot for the efficacy experiments. Black nightshade seedlings were thinned to one plant per pot. Black nightshade and wheat were treated at the four- and the three-leaf stage, respectively. The fresh weights of the plants were measured 14 days after treatment (14 DAT; black nightshade) or 21 days after treatment (21 DAT; wheat).
(§3) Demineralized water was used as the carrier. […] Based on previous work, these rates were 20.3 g ae/ha (equivalent to 0.6 mM) on black nightshade and 77.8 g ae/ha (equivalent to 2.3 mM at 200 L/ha) on wheat (ae=acid equivalent).
(§4) The fresh weight of the untreated plant was taken as a reference (100%). […] An industrial standard was also included in the test series.

Black nightshade (SOLNI) = experiment: adjuvant for glyphosate test on black nightshade; assay type: in vivo; details: where named, 0.25% w/v, 14 DAT; for Fresh Weight SOLNI: IPA-glyphosate 0.6 mM (20.3 g ae/ha at 200 L/ha); for Relative weight SOLNI (%): untreated plant = 100%, IPA-glyphosate 0.6 mM
Protocol: as §1, §2, §3, §4

[5] = Manometric Respirometry Test (biodegradability); details: after 28 days
Protocol: Biodegradability test of N,N-bis(3-(dimethylamino) propyl)-octanamide was tested in a Manometric Respirometry Test according to Commission Regulation 440/2008/EC, Method C.4-D of May 30, 2008: Manometric Respirometry Test (EEC Publication N° L142/496, May 2008).
The percentage of biodegradation was 65% after 28 days.

[6] = solubility / miscibility in water and dodecane; assay type: physicochemical
Text: R1 is preferably an aliphatic group, in particular a fatty chain, having 5-13 carbon atoms (i.e. a C5 to C13 carbon chain), preferably 5-9 carbon atoms. This embodiment is especially advantageous when the amide is a diamine of formula (I). […] This is not only the case when one or more of the R2, R3, R4 and R5 groups are ethanol and/or tertiary propanol groups, but also when these groups are alkyl groups, in particular C1 to C3 alkyl groups. The R2, R3, R4 and R5 groups are preferably methyl groups. The corresponding DMAPA amides, on the other hand, show only poor water solubility.
Furthermore, they can be used efficiently in highly concentrated (so-called ‘high load’) agrochemical compositions to prevent phase separation to occur. The amphiphilic behaviour of the bisDMAPA amides is further illustrated in example 4.

SMILES	Compatibility observation, 100% of Diquat [2]	Compatibility observation, 10% of Diquat [2]	Compatibility observation, 20% of Diquat [2]	Compatibility observation, 30% of Diquat [2]	Compatibility observation, 40% of Diquat [2]	Compatibility observation, 50% of Diquat [2]	Compatibility observation, 60% of Diquat [2]	Compatibility observation, 70% of Diquat [2]	Compatibility observation, 80% of Diquat [2]	Compatibility observation, 90% of Diquat [2]	further results
CCNc1nc(Cl)nc(NC(C)C)n1 [Atrazine]											log Kow ([1]; no pH given): 2.6
CC(C)N1C(=O)c2ccccc2NS1(=O)=O [Bentazone]											log Kow ([1]; at pH 7): −0.5
CCCCCCCC(=O)N(CCC[N+](C)(C)Cc1ccccc1)CCC[N+](C)(C)Cc1ccccc1.[Br-].[Br-] [C8BnBr]	Cl.	Cl.	Cl.	Cl.	Prec.	Prec.	Prec.	Prec.	Prec.	Prec.	
CCCCCCCC(=O)N(CCC[N+](C)(C)C)CCC[N+](C)(C)C.[Cl-].[Cl-] [C8MeCl]	Cl.	Cl.	Cl.	Cl.	Cl.	Cl.	Cl.	Cl.	Cl.	Cl.	
CCCCCCCC[N+](C)(C)CCCN(CCC[N+](C)(C)CCCCCCCC)C(=O)CCCCCCC.[Br-].[Br-] [C8OcBr]	Cl.	Cl.	Cl.	Blu.	Blu.	Turb.	Turb.	Turb.	Cl.	Cl.	
CCCCCCCCCC(=O)N(CCC[N+](C)(C)C)CCC[N+](C)(C)C.[Cl-].[Cl-] [C10MeCl]	Cl.	Cl.	Cl.	Cl.	Cl.	Turb.	Cl.	Cl.	Cl.	Cl.	
CCCCCCCCCCCC(=O)N(CCC[N+](C)(C)C)CCC[N+](C)(C)C.[Cl-].[Cl-] [C12MeCl]	Cl.	Cl.	Cl.	Cl.	Blu.	Cl.	Cl.	Cl.	Cl.	Cl.	
CCCCCCCCCCCCCC(=O)N(CCC[N+](C)(C)C)CCC[N+](C)(C)C.[Cl-].[Cl-] [C14MeCl]	Cl.	Cl.	Cl.	Cl.	Prec.	Cl.	Cl.	Cl.	Cl.	Cl.	
CCCCCCCCCCCCCCCC(=O)N(CCC[N+](C)(C)C)CCC[N+](C)(C)C.[Cl-].[Cl-] [C16MeCl]	Cl.	Cl.	Cl.	Visc.	Prec.	Cl.	Cl.	Cl.	Cl.	Cl.	
CCCCCCCCCCCCCCCCCC(=O)N(CCC[N+](C)(C)C)CCC[N+](C)(C)C.[Cl-].[Cl-] [C18MeCl]	Cl.	Cl.	Cl.	Cl.	Turb.	Visc.	Cl.	Cl.	Cl.	Cl.	
CCCCCCCCCCCCCCCC[N+](C)(C)C.[Br-] [CTAB, Cetrimonium bromide]											Solubility temperatures [° C.] 1 wt % [3]: 25 °C
CCOC(=O)C(Cl)Cc1cc(-n2nc(C)n(C(F)F)c2=O)c(F)cc1Cl (stereo not shown) [Carfentrazone-ethyl]											Fresh Weight CHEAL (g) Herbicide + Adjuvant ([4]; sub-optimal rate + N,N-bis(3-(dimethylamino)propyl)octanamide 0.25% (w/v)): 0.7 g; Fresh weight CHEAL (g) Only herbicide ([4]; sub-optimal rate, no adjuvant, average of four replicates): 4.9 g; log Kow ([1]; no pH given): 3.4
CCCCCCCCCCCC[N+](C)(C)C.[Br-] [DTAB, Dodecyl Trimethyl Ammonium Bromide]											Solubility temperatures [° C.] 1 wt % [3]: <0 °C
CC(C)N.O=C(O)CNCP(=O)(O)O [IPA-glyphosate, reference compound]											Fresh Weight WHEAT (winter wheat (cv. Ilias)): 12.6 g; Relative weight WHEAT (%) (winter wheat (cv. Ilias)): 71.7%; Fresh Weight SOLNI (Black nightshade (SOLNI)): 6.4 g; Relative weight SOLNI (%) (Black nightshade (SOLNI)): 55.2%
CCCCCCCC(=O)N(CCCN(C)C)CCCN(C)C [N,N-bis(3-(dimethylamino)propyl)octanamide]											Fresh Weight WHEAT (winter wheat (cv. Ilias)): 2.3 g; Relative weight WHEAT (%) (winter wheat (cv. Ilias)): 13.0%; biodegradability classification [5]: Readily Biodegradable; percentage of biodegradation [5]: 65%; Fresh Weight SOLNI (Black nightshade (SOLNI)): 1.6 g; Relative weight SOLNI (%) (Black nightshade (SOLNI)): 14.1%; solubility in dodecane [6]: completely soluble; solubility in water [6]: completely soluble
CCCCCCCCCCCC(=O)[O-].[Na+] [NaC12, Sodium Laurate]											Solubility temperatures [° C.] 1 wt % [3]: 25 °C
COc1cc(OC)nc(NC(=O)NS(=O)(=O)c2ncccc2C(=O)N(C)C)n1 [Nicosulfuron]											log Kow ([1]; at pH 7): 0
CCCCCCCCCCCC(=O)N(CCC[N+](C)(C)C)CCC[N+](C)(C)C.[Cl-].[Cl-] [R2, R3, R4, R5, R6 = —CH3 R1 = —C11H23]											Fresh Weight WHEAT (winter wheat (cv. Ilias)): 14.8 g; Relative weight WHEAT (%) (winter wheat (cv. Ilias)): 83.8%; Fresh Weight SOLNI (Black nightshade (SOLNI)): 5.8 g; Relative weight SOLNI (%) (Black nightshade (SOLNI)): 50.0%
CCCCCCCCCCCCCCCCCC(=O)N(CCC[N+](C)(C)C)CCC[N+](C)(C)C.[Cl-].[Cl-] [R2, R3, R4, R5, R6 = —CH3 R1 = —C17H35]											Fresh Weight WHEAT (winter wheat (cv. Ilias)): 14.7 g; Relative weight WHEAT (%) (winter wheat (cv. Ilias)): 83.5%; Fresh Weight SOLNI (Black nightshade (SOLNI)): 2.8 g; Relative weight SOLNI (%) (Black nightshade (SOLNI)): 24.0%
